Measurements as given in ChEMBL document CHEMBL1201862, “PubChem BioAssay data set” (2004).
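Results reflect a 48-hour exposure of cells in 96-well plates to compound at five concentrations. GI50 is the concentration that inhibits growth by half.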 Activity calls are given as the source filed them. Cut-off read from the data, not from the text of the source: active = GI50 up to about 1.1 µM and inactive = higher.

How the values were obtained:
Assay in all cases: NCI tumour cell line growth inhibition, 48 h
[1] = test system: T47D
[2] = test system: OVCAR-4
[3] = test system: SK-MEL-28
[4] = test system: MOLT-4
[5] = test system: SK-OV-3
[6] = test system: SF-268
[7] = test system: SNB-75
[8] = test system: KM12
[9] = test system: BT-549
[10] = test system: LOX IMVI
[11] = test system: HCT-15
[12] = test system: UO-31
[13] = test system: SNB-19
[14] = test system: CAKI-1
[15] = test system: HOP-92
[16] = test system: NCI/ADR-RES
[17] = test system: SK-MEL-5
[18] = test system: IGROV-1
[19] = test system: SW-620
[20] = test system: COLO 205
[21] = test system: TK-10
[22] = test system: CCRF-CEM
[23] = test system: A549
[24] = test system: NCI-H23
[25] = test system: NCI-H522
[26] = test system: ACHN
[27] = test system: SF-539
[28] = test system: RPMI-8226
[29] = test system: SK-MEL-2
[30] = test system: Hs-578T
[31] = test system: UACC-62
[32] = test system: HCC 2998
[33] = test system: MDA-MB-435
[34] = test system: SN12C
[35] = test system: MDA-MB-231
[36] = test system: A498
[37] = test system: EKVX
[38] = test system: SR
[39] = test system: OVCAR-5
[40] = test system: HOP-62
[41] = test system: UACC-257
[42] = test system: M14
[43] = test system: MCF7
[44] = test system: Malme-3M
[45] = test system: HL-60
[46] = test system: HT-29
[47] = test system: U-251
[48] = test system: RXF 393
[49] = test system: K562
[50] = test system: OVCAR-8
[51] = test system: NCI-H226
[52] = test system: 786-0
[53] = test system: DU-145
[54] = test system: SF-295
[55] = test system: HCT-116
[56] = test system: NCI-H460
[57] = test system: OVCAR-3
[58] = test system: MDA-N
[59] = test system: PC-3

Structure (SMILES): O=C(CCC1OCCO1)Nc1cc(NCc2ccccc2)ccc1OCc1ccccc1
- GI50 [1]: 69.5 µM (inactive)
- GI50 [2]: 31.8 µM (inactive)
- GI50 [3]: 64.7 µM (inactive)
- GI50 [4]: 20.5 µM (inactive)
- GI50 [5]: 68.5 µM (inactive)
- GI50 [6]: 63.8 µM (inactive)
- GI50 [7]: 32.5 µM (inactive)
- GI50 [8]: 30.1 µM (inactive)
- GI50 [9]: 38.5 µM (inactive)
- GI50 [10]: 33.7 µM (inactive)
- GI50 [11]: 35.1 µM
- GI50 [12]: 33.9 µM (inactive)
- GI50 [13]: 40.3 µM (inactive)
- GI50 [14]: 20.7 µM (inactive)
- GI50 [15]: 17.8 µM (inactive)
- GI50 [16]: 43.1 µM (inactive)
- GI50 [17]: 18.4 µM (inactive)
- GI50 [18]: 41.6 µM (inactive)
- GI50 [19]: 42.1 µM (inactive)
- GI50 [20]: 22.3 µM (inactive)
- GI50 [21]: 26.6 µM (inactive)
- GI50 [22]: 17 µM (inactive)
- GI50 [23]: 30.6 µM (inactive)
- GI50 [24]: 31.7 µM (inactive)
- GI50 [25]: 23.7 µM (inactive)
- GI50 [26]: 33.5 µM (inactive)
- GI50 [27]: 30.4 µM (inactive)
- GI50 [28]: 20.1 µM (inactive)
- GI50 [29]: 21 µM (inactive)
- GI50 [30]: 34.3 µM (inactive)
- GI50 [31]: 28.1 µM (inactive)
- GI50 [32]: 33 µM (inactive)
- GI50 [33]: 23.6 µM (inactive)
- GI50 [34]: 46.8 µM (inactive)
- GI50 [35]: 42 µM (inactive)
- GI50 [36]: 30.5 µM (inactive)
- GI50 [37]: 21.2 µM (inactive)
- GI50 [38]: 27.9 µM (inactive)
- GI50 [39]: 46.9 µM (inactive)
- GI50 [40]: > 100 µM (inactive)
- GI50 [41]: 20.2 µM (inactive)
- GI50 [42]: 59.6 µM (inactive)
- GI50 [43]: 33.6 µM (inactive)
- GI50 [44]: 20.6 µM (inactive)
- GI50 [45]: 38.5 µM (inactive)
- GI50 [46]: 27.7 µM (inactive)
- GI50 [47]: 37.1 µM (inactive)
- GI50 [48]: 28.8 µM (inactive)
- GI50 [49]: 28.9 µM (inactive)
- GI50 [50]: 18.9 µM (inactive)
- GI50 [51]: 38.4 µM (inactive)
- GI50 [52]: > 100 µM (inactive)
- GI50 [53]: 50.5 µM (inactive)
- GI50 [54]: 30.2 µM (inactive)
- GI50 [55]: 48.9 µM (inactive)
- GI50 [56]: 39.1 µM (inactive)

Structure (SMILES): Cc1cccc(CC(Cc2c(C)cccc2C(=O)O)C(=O)O)c1 (stereo not drawn)
- GI50 [2]: > 100 µM (inactive)
- GI50 [3]: > 100 µM (inactive)
- GI50 [4]: > 100 µM (inactive)
- GI50 [5]: > 100 µM (inactive)
- GI50 [6]: > 100 µM (inactive)
- GI50 [7]: > 100 µM (inactive)
- GI50 [8]: > 100 µM (inactive)
- GI50 [9]: > 100 µM (inactive)
- GI50 [10]: > 100 µM (inactive)
- GI50 [11]: 31.3 µM
- GI50 [12]: > 100 µM (inactive)
- GI50 [13]: > 100 µM (inactive)
- GI50 [14]: > 100 µM (inactive)
- GI50 [16]: > 100 µM (inactive)
- GI50 [17]: 4.49 µM (inactive)
- GI50 [18]: > 100 µM (inactive)
- GI50 [19]: > 100 µM (inactive)
- GI50 [20]: > 100 µM (inactive)
- GI50 [21]: > 100 µM (inactive)
- GI50 [22]: > 100 µM (inactive)
- GI50 [23]: > 100 µM (inactive)
- GI50 [24]: > 100 µM (inactive)
- GI50 [25]: > 100 µM (inactive)
- GI50 [26]: > 100 µM (inactive)
- GI50 [27]: > 100 µM (inactive)
- GI50 [28]: > 100 µM (inactive)
- GI50 [29]: 58.7 µM (inactive)
- GI50 [30]: > 100 µM (inactive)
- GI50 [31]: 0.0875 µM (active)
- GI50 [32]: 67.6 µM (inactive)
- GI50 [33]: > 100 µM (inactive)
- GI50 [34]: > 100 µM (inactive)
- GI50 [35]: > 100 µM (inactive)
- GI50 [36]: > 100 µM (inactive)
- GI50 [37]: > 100 µM (inactive)
- GI50 [38]: > 100 µM (inactive)
- GI50 [39]: > 100 µM (inactive)
- GI50 [40]: > 100 µM (inactive)
- GI50 [57]: > 100 µM (inactive)
- GI50 [41]: > 100 µM (inactive)
- GI50 [42]: > 100 µM (inactive)
- GI50 [58]: > 100 µM (inactive)
- GI50 [43]: > 100 µM (inactive)
- GI50 [44]: > 100 µM (inactive)
- GI50 [45]: > 100 µM (inactive)
- GI50 [46]: > 100 µM (inactive)
- GI50 [47]: > 100 µM (inactive)
- GI50 [48]: > 100 µM (inactive)
- GI50 [49]: > 100 µM (inactive)
- GI50 [59]: > 100 µM (inactive)
- GI50 [50]: > 100 µM (inactive)
- GI50 [51]: > 100 µM (inactive)
- GI50 [52]: > 100 µM (inactive)
- GI50 [53]: > 100 µM (inactive)
- GI50 [54]: > 100 µM (inactive)
- GI50 [55]: > 100 µM (inactive)
- GI50 [56]: > 100 µM (inactive)
